Experimental data from patent US9474744B2, “Beta-lactam compounds for treating diabetes” (STEM CELL MEDICINE LTD., priority 2011, dated 2016).

Columns and labels:
[1] = system: encephalitogenic BP10 line; experiment: Adoptive EAE: BP10 T-cell line stimulated in vitro with test substance, then injected into naive rats; type: in vivo, rat; settings: BP10 line stimulated 3 days with MBP in presence of 50 μg/ml antibiotic; 10^7 cells per rat
Description: Antigen-specific T-cell lines were established from lymph node cells that had been stimulated with myelin basic protein (MBP; 10 μg/ml) for 3 days in stimulation medium as described below. Following stimulation, the T-cell blasts were isolated on LYMPHOPREP™ (Nycomed Pharma, Oslo, Norway) and seeded in propagation medium. Propagation medium was identical to stimulation medium without autologous serum, but supplemented with fetal calf serum 10% and T-cell growth factors from the supernatant of Con A stimulated spleen cells 10% (Mor et al. (1990) J Clin Invest, 85, 1594-1598). Animals were injected intra-peritoneally with 107 MBP-stimulated T cells, following 6-8 cycles of in vitro stimulations. It is known that MBP-reactive lines undergo a reduction in pathogenicity after 6 or more in vitro stimulations. In some experiments the BP10 line was stimulated with phorbol myristate acetate (PMA; 50 ng/ml) and ionomycin (500 ng/ml) for 3 days in stimulation medium, without antigen-presenting cells.
Active EAE was induced by subcutaneous injection of 25 μg guinea-pig MBP (GpMBP) in complete Freund's adjuvant (CFA). […] Adoptive EAE was transferred by intra-peritoneal injection of guinea-pig MBP-activated cells of the BP10 line as described in Mor et al. (1993) J Clin Invest, 92, 2199-2206. […] Clinical scoring was: +1, paralysis of tail; +1.5, paresis of posterior paws and ataxia; +2, paraplegia; +3, paralysis extending to thoracic spine; +4, a moribund state.
Treatment with cefuroxime in vivo could affect many different host agents involved in EAE or AA as well as influencing the rats' bacterial flora. To test whether the antibiotic might directly modify the behavior of effector T cells, an encephalitogenic T-cell line was stimulated in the presence or absence of cefuroxime in vitro. The weakly encephalitogenic BP10 line was used, and was stimulated for 3 days with MBP in the presence or absence of cefuroxime (50 μg/ml). The activated T cells were then washed to remove the antibiotic, the T cells were injected intra-peritoneally into naïve recipient rats (10^7 per rat), and EAE was scored. The BP10 line at later stimulations was used, when its pathogenic potential is reduced, allowing to detect both suppression and enhancement of disease. […] To rule out antigen presenting cells (APC) as the target of the beta-lactam antibiotic, the encephalitogenic BP10 line was stimulated without APC using PMA (50 ng/ml) and Ionomycin (500 ng/ml) in the presence or absence of cefuroxime.
Additional beta-lactam antibiotics were tested for their effect on the adoptive transfer of EAE.
A control group was injected with the untreated line.

CD4+ human T cells = experiment: Human Autoimmune and Inflammatory Response Gene Array, anti-CD3-stimulated T cells with or without antibiotic; type: cell-based; settings: 120 min anti-CD3; for % increase by Amp: ampicillin 50 μg/ml
Description: T cells were purified from the peripheral bloods of healthy human donors (Blood Bank, Sheba Medical center). The whole blood was incubated (20 min, 22° C.) with RosetteSep™ human T cell enrichment mixture (StemCell Technologies, Vancouver, Canada). The remaining unsedimented cells were then loaded onto lymphocyte separation medium (ICN Biomedicals, Irvine, Calif.), isolated by density centrifugation, and washed with PBS. […] In a second round of purification, CD3^+ T cells were labeled for selection with a magnetically coupled mAb against CD4 (Miltenyi Biotec, Auburn, Calif.).
Human CD4 T cells were isolated as described, and incubated in 24 well plates (Nunc), 4×10^6 cells/ml with plate bound anti-human CD3 (OKT3) at 2 μg/ml. The stimulation was performed in RPMI medium supplemented with 0.1% BSA. […] RNA was extracted from samples and used to prepare probes for gene array in accord with the manufacturer's instructions (SuperArray Bioscience, Frederick, Md.). Adequate labeling of the probes was tested before hybridization. Three healthy donors were tested in stimulation with cefuroxime. The membranes were analyzed online with the Image Data Acquisition and Expression Analysis (SuperArray Bioscience).
The Human Autoimmune and Inflammatory Response Gene Array (SuperArray Bioscience corporation, Frederick, Md., USA) was used for analysis of gene expression by the T cells. This array contains 367 genes including cytokines, chemokines and their receptors, transcription factors and signaling proteins. […] Analysis of the results was performed using the GEArray analysis program. […] To verify the results detected by the gene array study, a panel of six genes was designed and tested by real-time PCR: CCR4, ACVR2, JAK1, STAT4, TLR2 and NFKBIE. The cDNA that was used was prepared from the same RNA used for the gene array experiment.

With `CC1(C)S[C@@H]2[C@H](NC(=O)[C@H](N)c3ccccc3)C(=O)N2[C@H]1C(=O)O` [ampicillin] the “severity of adoptive EAE in recipient rats” value [1] was “did not increase the severity of EAE”, the “number of the 57 cefuroxime-down-regulated genes that were up-regulated” value (CD4+ human T cells; 50 μg/ml) was 56 genes and the “% increase by Amp” value (CD4+ human T cells; gene ACTB) was “+196%”. The “% increase by Amp” value (CD4+ human T cells; gene ACVR1, A low expression) was “+53%”, the “% increase by Amp” value (CD4+ human T cells; gene ACVR2, A low expression) was “+85%” and the “% increase by Amp” value (CD4+ human T cells; gene CCL5) was “+25%”. The “% increase by Amp” value (CD4+ human T cells; gene CCL11) was “+107%”, the “% increase by Amp” value (CD4+ human T cells; gene CCR4) was “+31%” and the “% increase by Amp” value (CD4+ human T cells; gene CCR6) was “+83%”. The “% increase by Amp” value (CD4+ human T cells; gene CCR7) was “+43%”, the “% increase by Amp” value (CD4+ human T cells; gene CD28) was “+175%” and the “% increase by Amp” value (CD4+ human T cells; gene CD40LG) was “+67%”. For the same compound, the “% increase by Amp” value (CD4+ human T cells; gene CREBBP) was “+49%”, the “% increase by Amp” value (CD4+ human T cells; gene CXCL10) was “+25%” and the “% increase by Amp” value (CD4+ human T cells; gene EGR3) was −25%. For the same compound, the “% increase by Amp” value (CD4+ human T cells; gene GFI1) was “+10%”, the “% increase by Amp” value (CD4+ human T cells; gene HRAS, A low expression) was −12% and the “% increase by Amp” value (CD4+ human T cells; gene IL1B, A low expression) was “+64%”. The “% increase by Amp” value (CD4+ human T cells; gene IL2RB) was “+93%”, the “% increase by Amp” value (CD4+ human T cells; gene IL2RG, A low expression) was “+78%” and the “% increase by Amp” value (CD4+ human T cells; gene IL9R) was “No change”. The “% increase by Amp” value (CD4+ human T cells; gene IL16, A low expression) was “+14%”, the “% increase by Amp” value (CD4+ human T cells; gene IRAK1) was “+171%” and the “% increase by Amp” value (CD4+ human T cells; gene JAK1) was “+161%”. The “% increase by Amp” value (CD4+ human T cells; gene JUN) was “+65%”, the “% increase by Amp” value (CD4+ human T cells; gene LTA) was “+48.5%” and the “% increase by Amp” value (CD4+ human T cells; gene MAP2K4) was “+150%”. The “% increase by Amp” value (CD4+ human T cells; gene MAP3K1, A low expression) was “+63%”, the “% increase by Amp” value (CD4+ human T cells; gene MAP3K2) was “+93%” and the “% increase by Amp” value (CD4+ human T cells; gene MAP3K7) was “+124%”. For the same compound, the “% increase by Amp” value (CD4+ human T cells; gene MAPK9) was “+46%”, the “% increase by Amp” value (CD4+ human T cells; gene NFKB1) was “+31%” and the “% increase by Amp” value (CD4+ human T cells; gene NFKB2) was “+195%”. For the same compound, the “% increase by Amp” value (CD4+ human T cells; gene NFKBIE) was “+132%”, the “% increase by Amp” value (CD4+ human T cells; gene NFKBIL1) was “+191%” and the “% increase by Amp” value (CD4+ human T cells; gene PAK1) was “+111%”. For the same compound, the “% increase by Amp” value (CD4+ human T cells; gene PIN1) was “+105%”, the “% increase by Amp” value (CD4+ human T cells; gene RANBP5) was “+108%” and the “% increase by Amp” value (CD4+ human T cells; gene REL) was “+132%”. The “% increase by Amp” value (CD4+ human T cells; gene RFX5) was “+137%”, the “% increase by Amp” value (CD4+ human T cells; gene RFXAP) was “+131%” and the “% increase by Amp” value (CD4+ human T cells; gene SDF2) was “+71%”. For the same compound, the “% increase by Amp” value (CD4+ human T cells; gene SELL) was “+124%”, the “% increase by Amp” value (CD4+ human T cells; gene SMAD4) was “+85%” and the “% increase by Amp” value (CD4+ human T cells; gene SMAD7, A low expression) was “+34%”. The “% increase by Amp” value (CD4+ human T cells; gene SP3) was “+47%”, the “% increase by Amp” value (CD4+ human T cells; gene SRF) was “+58%” and the “% increase by Amp” value (CD4+ human T cells; gene STAT1) was “+85%”. The “% increase by Amp” value (CD4+ human T cells; gene STAT4) was “+11%”, the “% increase by Amp” value (CD4+ human T cells; gene STAT6) was “no change” and the “% increase by Amp” value (CD4+ human T cells; gene TGFBR3) was “+139%”. For the same compound, the “% increase by Amp” value (CD4+ human T cells; gene TGIF, A low expression) was “+72%”, the “% increase by Amp” value (CD4+ human T cells; gene TLR2, A low expression) was “+419%” and the “% increase by Amp” value (CD4+ human T cells; gene TNFRSF11, A low expression) was “+81%”. For the same compound, the “% increase by Amp” value (CD4+ human T cells; gene TNFα) was “+39%”, the “% increase by Amp” value (CD4+ human T cells; gene TRAF5, A low expression) was “+47%” and the “% increase by Amp” value (CD4+ human T cells; gene TRAF6, A low expression) was “+39%”. The “% increase by Amp” value (CD4+ human T cells; gene YY1) was “+152%”.
